Laboratory results from paper PMC12457078, “Inhibition of soluble epoxide hydrolase in endotoxin induced pig lung injury” (Frontiers in Pharmacology, 2025).
Where “and” joins values, the source holds several entries; their conditions need not be identical. Equal entries are not always repeated.

Test system: sEH
Assay: oxylipin analysis, epoxide/diol ratios (target engagement)
Assay type: in vivo, pig
Design: 14,15-DiHETE: unit not given beside the values; 12,13-DiHOME / 9,10-DiHODE / 11,12-DiHETrE / 14,15-DiHETrE / 10,11-DiHDPE / 19,20-DiHDPE / 13-HODE / 5-HETE / 11-HETE / 12-HETE / 5-HEPE / 9(10)-EpOME / 12(13)-EpOME / EKODE / 11(12)-EpETE: unit not given here
Settings: for 9,10,13-TriHOME sample concentration / 9,12,13-TriHOME sample concentration: bad chromatography; for 14,15-DiHETE: high blanks
Method: All animals were monitored with pulse oximetry, heart rate, ECG, systemic arterial blood pressure (ABP), pulmonary arterial pressure (PAP), central venous pressure (CVP) temperature, tidal volumes, respiratory rate and end tidal carbon dioxide. At baseline, and at 3 h, 6 h and at the end of the experiment, pulmonary capillary wedge pressure (PCWP) was measured together with arterial and venous blood gas analyses, as well as cardiac output calculations. Routine chemistry, including creatinine, bilirubin, glucose, electrolytes were collected at baseline and at the end of the experiment (Vetscan VS2®, Abaxis, Griesheim, Germany). Blood samples for measurement of AEPU plasma concentrations, as well as oxylipins (i.e., EpETrEs and their DiHETrE corresponding diols as well as related compounds with other polyunsaturated fatty acid precursors), were collected at baseline, 6 h and at the end of the experiment.
This meant nine subjects in each group to achieve 90% power of detecting a difference of this size given α = 0.05. Anticipating that not all experiments would reach completion, we used a sample size of 22. The results were analyzed using SPSS Statistics, version 24 (IBM Corp., Armonk, N.Y., United States). Normality was examined with the Shapiro-Wilk test, together with examination of histograms of data. Continuous variables were compared using Student’s t-test or Mann Whitney U test, as appropriate. Categorical variables were compared using Fischer’s exact test. Statistical significance was set at α < 0.05. Oxylipins with at least 80% of observations above limit of detection at both timepoints were included in pairwise comparisons of ratios and fold-change evaluations where observations below limit of detection (LOD) were substituted with 0.5 x LOD.

[1] = Time (h) 0, single pigs of sEH-i group
[2] = Time (h) 6, single pigs of sEH-i group
[3] = animal 20, time 6, sample Schwein36
[4] = animal 22, time 0, sample Schwein37
[5] = animal 22, time 6, sample Schwein38

CCOCCOCCOCCCCCNC(=O)NC12CC3CC(CC(C3)C1)C2 [sEH-i]
5(6)-EpETrE sample concentration [1]: <LOD
5,6-DiHETrE sample concentration [1]: <LOD
7(8)-EpDPE sample concentration [1]: <LOD
7,8-DiHDPE sample concentration [1]: <LOD
8(9)-EpETE sample concentration [1]: <LOD
8(9)-EpETrE sample concentration [1]: <LOD
8,9-DiHETE sample concentration [1]: <LOD
9-HETE sample concentration [1]: <LOD
9-oxo-ODE sample concentration [1]: <LOD
10(11)-EpDPE sample concentration [1]: <LOD
11(12)-EpETE sample concentration [1]: 0.1209 pmol/mL and 0.141 pmol/mL and 0.08872 pmol/mL
13(14)-EpDPE sample concentration [1]: <LOD
14(15)-EpETE sample concentration [1]: <LOD
15-HEPE sample concentration [1]: <LOD
16(17)-EpDPE sample concentration [1]: <LOD
17(18)-EpETE sample concentration [1]: <LOD
17-HDoHE sample concentration [1]: <LOD
19(20)-EpDPE sample concentration [1]: <LOD
LTB4 sample concentration [1]: <LOD
PGD2 sample concentration [1]: <LOD
PGE2 sample concentration [1]: <LOD
PGF2a sample concentration [1]: <LOD
Resolvin D1 sample concentration [1]: <LOD
Resolvin D2 sample concentration [1]: <LOD
TXB2 sample concentration [1]: 0.17 pmol/mL and 0.31 pmol/mL
9,10,13-TriHOME sample concentration [1]: 4.78 pmol/mL and 2.75 pmol/mL and 3.27 pmol/mL
9,12,13-TriHOME sample concentration [1]: <LOD
5(6)-EpETrE sample concentration [2]: <LOD
7(8)-EpDPE sample concentration [2]: <LOD
7,8-DiHDPE sample concentration [2]: <LOD
8(9)-EpETE sample concentration [2]: <LOD
8(9)-EpETrE sample concentration [2]: <LOD
9-HETE sample concentration [2]: <LOD
9-oxo-ODE sample concentration [2]: <LOD
10(11)-EpDPE sample concentration [2]: <LOD
11(12)-EpETE sample concentration [2]: 0.1453 pmol/mL and 0.09993 pmol/mL and 0.1012 pmol/mL
13(14)-EpDPE sample concentration [2]: <LOD
14(15)-EpETE sample concentration [2]: <LOD
15-HEPE sample concentration [2]: <LOD
16(17)-EpDPE sample concentration [2]: <LOD
17(18)-EpETE sample concentration [2]: <LOD
19(20)-EpDPE sample concentration [2]: <LOD
LTB4 sample concentration [2]: <LOD
PGD2 sample concentration [2]: <LOD
PGE2 sample concentration [2]: <LOD
Resolvin D1 sample concentration [2]: <LOD
Resolvin D2 sample concentration [2]: <LOD
TXB2 sample concentration [2]: 1.20 pmol/mL and 2.15 pmol/mL and 2.09 pmol/mL
9,10,13-TriHOME sample concentration [2]: 4.27 pmol/mL and 3.59 pmol/mL and 2.73 pmol/mL
9,12,13-TriHOME sample concentration [2]: <LOD
5(6)-EpETrE [3]: <LOD
5,6-DiHETrE [3]: <LOD
5-HEPE [3]: <LOD
5-HETE [3]: <LOD
5-oxo-ETE [3]: 0.05
7(8)-EpDPE [3]: <LOD
7,8-DiHDPE [3]: <LOD
8(9)-EpETE [3]: <LOD
8(9)-EpETrE [3]: <LOD
8,9-DiHETE [3]: <LOD
8,9-DiHETrE [3]: 0.0443
8-HETE [3]: 0.0319
9(10)-EpODE [3]: <LOD
9(10)-EpOME [3]: 0.34
9,10,13-TriHOME [3]: 6.77
9,10-DiHODE [3]: 0.0155
9,10-DiHOME [3]: 0.21
9,12,13-TriHOME [3]: <LOD
9-HETE [3]: <LOD
9-HODE [3]: 1.17
9-HOTrE [3]: 0.2865
9-oxo-ODE [3]: <LOD
10(11)-EpDPE [3]: <LOD
10,11-DiHDPE [3]: <LOD
11(12)-EpETE [3]: 0.0834
11(12)-EpETrE [3]: 0.0219
11,12-DiHETE [3]: 0.0228
11,12-DiHETrE [3]: 0.45
11-HETE [3]: 0.12
12(13)-EpODE [3]: <LOD
12(13)-EpOME [3]: 0.3027
12,13-DiHODE [3]: <LOD
12,13-DiHOME [3]: 0.26
12-HEPE [3]: 0.0122
12-HETE [3]: 0.06381
12-oxo-ETE [3]: <LOD
13(14)-EpDPE [3]: <LOD
13,14-DiHDPE [3]: 0.04
13-HODE [3]: 4.33
13-HOTrE [3]: <LOD
13-oxo-ODE [3]: <LOD
14(15)-EpETE [3]: <LOD
14(15)-EpETrE [3]: <LOD
14,15-DiHETrE [3]: 0.58
15(16)-EpODE [3]: 0.25
15,16-DiHODE [3]: 2.37
15-HEPE [3]: <LOD
15-HETE [3]: 0.23
15-HETrE [3]: 0.10
15-oxo-ETE [3]: 0.0224
16(17)-EpDPE [3]: <LOD
16,17-DiHDPE [3]: 0.0373
17(18)-EpETE [3]: <LOD
17,18-DiHETE [3]: 0.77
17-HDoHE [3]: <LOD
19(20)-EpDPE [3]: <LOD
19,20-DiHDPE [3]: 0.44
20-HETE [3]: 0.0531
EKODE [3]: 0.20
LTB4 [3]: 0.26
PGD2 [3]: <LOD
PGE2 [3]: <LOD
PGF2a [3]: 0.69
Resolvin D1 [3]: <LOD
Resolvin D2 [3]: <LOD
TXB2 [3]: 2.57
14,15-DiHETE [3]: 0.2599
5(6)-EpETrE [4]: <LOD
5,6-DiHETrE [4]: <LOD
5-HEPE [4]: 0.21
5-HETE [4]: 0.81
5-oxo-ETE [4]: 0.30
7(8)-EpDPE [4]: <LOD
7,8-DiHDPE [4]: <LOD
8(9)-EpETE [4]: <LOD
8(9)-EpETrE [4]: <LOD
8,9-DiHETE [4]: 0.0568
8,9-DiHETrE [4]: 0.11
8-HETE [4]: 0.16
9(10)-EpODE [4]: 0.39
9(10)-EpOME [4]: 1.58
9,10,13-TriHOME [4]: 8.76
9,10-DiHODE [4]: 0.80
9,10-DiHOME [4]: 5.53
9,12,13-TriHOME [4]: 1.91
9-HETE [4]: <LOD
9-HODE [4]: 22.28
9-HOTrE [4]: 2.15
9-oxo-ODE [4]: <LOD
10(11)-EpDPE [4]: <LOD
10,11-DiHDPE [4]: 0.12
11(12)-EpETE [4]: 0.09412
11(12)-EpETrE [4]: 0.09
11,12-DiHETE [4]: 0.09
11,12-DiHETrE [4]: 1.52
11-HETE [4]: 0.33
12(13)-EpODE [4]: 0.93
12(13)-EpOME [4]: 3.18
12,13-DiHODE [4]: 1.66
12,13-DiHOME [4]: 19.80
12-HEPE [4]: 0.0755
12-HETE [4]: 0.69
12-oxo-ETE [4]: 4.85
13(14)-EpDPE [4]: <LOD
13,14-DiHDPE [4]: 0.22
13-HODE [4]: 80.31
13-HOTrE [4]: 4.84
13-oxo-ODE [4]: 6.02
14(15)-EpETE [4]: <LOD
14(15)-EpETrE [4]: 0.11
14,15-DiHETrE [4]: 3.44
15(16)-EpODE [4]: 36.18
15,16-DiHODE [4]: 74.86
15-HEPE [4]: <LOD
15-HETE [4]: 0.58
15-HETrE [4]: 0.39
15-oxo-ETE [4]: 0.15
16(17)-EpDPE [4]: <LOD
16,17-DiHDPE [4]: 0.63
17(18)-EpETE [4]: <LOD
17,18-DiHETE [4]: 3.51
17-HDoHE [4]: 0.47
19(20)-EpDPE [4]: 0.29
19,20-DiHDPE [4]: 4.63
20-HETE [4]: 0.35
EKODE [4]: 0.67
LTB4 [4]: <LOD
PGD2 [4]: 0.04
PGE2 [4]: 0.0328
PGF2a [4]: 0.19
Resolvin D1 [4]: <LOD
Resolvin D2 [4]: <LOD
TXB2 [4]: 0.22
14,15-DiHETE [4]: 0.2458
5(6)-EpETrE [5]: <LOD
5,6-DiHETrE [5]: <LOD
5-HEPE [5]: 0.03
5-HETE [5]: 0.2075
5-oxo-ETE [5]: 0.12
7(8)-EpDPE [5]: <LOD
7,8-DiHDPE [5]: <LOD
8(9)-EpETE [5]: <LOD
